Where “and” joins values, the source holds several entries; their conditions need not be identical. Equal values may be shown once.
Tested on: 379773-124-R-J2-PDC complex spheroids, viability % test/control
Assay: Anticancer human tumor 379773-124-R-J2-PDC patient-derived endometrial carcinoma cell line growth inhibition [CLK]
Details: for viability, T/C: stronger effect = lower value; active means viability on the fitted dose curve at most 10% of control; inactive means the rest
Method in brief: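 Patient-derived tumor cells grown as complex spheroids with HUVEC endothelial cells and mesenchymal stem cells, treated with drug combinations. Concentrations descend in half-log steps from near clinical Cmax, or from 10 microM if Cmax unknown.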

[1] = curve of first compound, second compound 0.0316 µM
[2] = curve of first compound, second compound 0.1 µM
[3] = curve of first compound, second compound 0.316 µM
[4] = curve of first compound, second compound 1 µM
[5] = curve of first compound, second compound 3.16 µM
[6] = curve of first compound, second compound 10 µM
[7] = second compound 0.0316 µM, first compound 0.0316 µM
[8] = second compound 0.0316 µM, first compound 0.1 µM
[9] = second compound 0.0316 µM, first compound 0.316 µM
[10] = second compound 0.0316 µM, first compound 1 µM
[11] = second compound 0.1 µM, first compound 0.0316 µM
[12] = second compound 0.1 µM, first compound 0.1 µM
[13] = second compound 0.1 µM, first compound 0.316 µM
[14] = second compound 0.1 µM, first compound 1 µM
[15] = second compound 0.316 µM, first compound 0.0316 µM
[16] = second compound 0.316 µM, first compound 0.1 µM
[17] = second compound 0.316 µM, first compound 0.316 µM
[18] = second compound 0.316 µM, first compound 1 µM
[19] = second compound 1 µM, first compound 0.0316 µM
[20] = second compound 1 µM, first compound 0.1 µM
[21] = second compound 1 µM, first compound 0.316 µM
[22] = second compound 1 µM, first compound 1 µM
[23] = second compound 3.16 µM, first compound 0.0316 µM
[24] = second compound 3.16 µM, first compound 0.1 µM
[25] = second compound 3.16 µM, first compound 0.316 µM
[26] = second compound 3.16 µM, first compound 1 µM
[27] = second compound 10 µM, first compound 0.0316 µM
[28] = second compound 10 µM, first compound 0.1 µM
[29] = second compound 10 µM, first compound 0.316 µM
[30] = second compound 10 µM, first compound 1 µM
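Further: compound exposure lasted seven days before the viability readout.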
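Wherever viability, T/C is given: 100% = DMSO vehicle control wells.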

CC1(C)CCC(CN2CCN(c3ccc(C(=O)NS(=O)(=O)c4ccc(NCC5CCOCC5)c([N+](=O)[O-])c4)c(Oc4cnc5[nH]ccc5c4)c3)CC2)=C(c2ccc(Cl)cc2)C1 + CNC(=O)c1ccc(Nc2nc(OC3CCCC3)c3c(-c4ccc5nc(C)oc5c4)c[nH]c3n2)c(OC)c1
4460 nM: IC50 [1]
inactive: viability, T/C [7] 68.1% | viability, T/C [8] 79.2% | viability, T/C [9] 76.3% | viability, T/C [10] 83.6% | viability, T/C (second compound 0.0316 µM, first compound 3.16 µM) 70.9% | viability, T/C [11] 42.1% | viability, T/C [12] 38.5% | viability, T/C [13] 33.8% | viability, T/C [14] 38.1% | viability, T/C (second compound 0.1 µM, first compound 3.16 µM) 32.5% | viability, T/C [15] 35.6% | viability, T/C [16] 33.2% | viability, T/C [17] 33.7% | viability, T/C [18] 44.9% | viability, T/C (second compound 0.316 µM, first compound 3.16 µM) 32% | viability, T/C [19] 32% | viability, T/C [20] 31.9% | viability, T/C [21] 30.8% | viability, T/C [22] 38.6% | viability, T/C (second compound 1 µM, first compound 3.16 µM) 28.6% | viability, T/C (second compound 1 µM, first compound 10 µM) 2.29% | viability, T/C [23] 31.2% | viability, T/C [24] 33.2% | viability, T/C [25] 42% | viability, T/C [26] 31.2% | viability, T/C (second compound 3.16 µM, first compound 3.16 µM) 32.7% | viability, T/C [27] 30.8% | viability, T/C [28] 25.5% | viability, T/C [29] 30.7% | viability, T/C [30] 32.7% | viability, T/C (second compound 10 µM, first compound 3.16 µM) 29.3% | viability, T/C (second compound 10 µM, first compound 10 µM) 1.59%
< 31.6 nM: IC50 [2] | IC50 [3] | IC50 [4] | IC50 [5] | IC50 [6]
active: viability, T/C (second compound 0.0316 µM, first compound 10 µM) 0.9% | viability, T/C (second compound 0.1 µM, first compound 10 µM) 1.18% | viability, T/C (second compound 0.316 µM, first compound 10 µM) 1.34% | viability, T/C (second compound 3.16 µM, first compound 10 µM) 0.72%

Nc1ccccc1NC(=O)c1ccc(CNC(=O)OCc2cccnc2)cc1
active: viability, T/C (compound 10 µM) 8.85% and 7.74%
inactive: viability, T/C (compound 0.0316 µM) 108% and 92.4% | viability, T/C (compound 0.1 µM) 100% and 89.7% | viability, T/C (compound 0.316 µM) 95.6% and 104% | viability, T/C (compound 1 µM) 102% and 96.7% | viability, T/C (compound 3.16 µM) 47.8% and 45.6%
3020 nM and 2860 nM: IC50 (curve of compound)

CCc1c2c(nc3ccc(O)cc13)-c1cc3c(c(=O)n1C2)COC(=O)[C@]3(O)CC + CNC(=O)c1ccc(Nc2nc(OC3CCCC3)c3c(-c4ccc5nc(C)oc5c4)c[nH]c3n2)c(OC)c1
active: viability, T/C (second compound 0.0316 µM, first compound 0.01 µM) 6.83% | viability, T/C [7] 2.79% | viability, T/C [8] 1.86% | viability, T/C [9] 0.94% | viability, T/C [10] 0.4% | viability, T/C (second compound 0.1 µM, first compound 0.00316 µM) 7.91% | viability, T/C (second compound 0.1 µM, first compound 0.01 µM) 4.87% | viability, T/C [11] 2.4% | viability, T/C [12] 1.19% | viability, T/C [13] 0.65% | viability, T/C [14] 0.35% | viability, T/C (second compound 0.316 µM, first compound 0.00316 µM) 6.52% | viability, T/C (second compound 0.316 µM, first compound 0.01 µM) 5.08% | viability, T/C [15] 2.12% | viability, T/C [16] 1.42% | viability, T/C [17] 0.6% | viability, T/C [18] 0.25% | viability, T/C (second compound 1 µM, first compound 0.00316 µM) 5.11% | viability, T/C (second compound 1 µM, first compound 0.01 µM) 4.25% | viability, T/C [19] 2.43% | viability, T/C [20] 0.96% | viability, T/C [21] 0.45% | viability, T/C [22] 0.37% | viability, T/C (second compound 3.16 µM, first compound 0.00316 µM) 5.35% | viability, T/C (second compound 3.16 µM, first compound 0.01 µM) 4.96% | viability, T/C [23] 1.98% | viability, T/C [24] 1.08% | viability, T/C [25] 0.6% | viability, T/C [26] 0.2% | viability, T/C (second compound 10 µM, first compound 0.00316 µM) 5.38% | viability, T/C (second compound 10 µM, first compound 0.01 µM) 4.45% | viability, T/C [27] 2.55% | viability, T/C [28] 1.19% | viability, T/C [29] 0.79% | viability, T/C [30] 0.39%
inactive: viability, T/C (second compound 0.0316 µM, first compound 0.00316 µM) 12.8%
< 3.16 nM: IC50 [1] | IC50 [2] | IC50 [3] | IC50 [4] | IC50 [5] | IC50 [6]
